GI50 and TGI data for 1 compound are collected here from PubChem BioAssay (NCI).

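Exposure lasted 48 hours, with cells grown in 96-well plates and compounds tested at five concentrations. The concentration for 50% growth inhibition is given as GI50. The concentration for full growth arrest is given as TGI.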

Experiment in all cases: DTP human tumour cell line panel, 48 h
For assay [1], the system named is 786-0 renal.
Assay [2] relates to NCI-H460 lung.
The subject of assay [3] is A498 renal.
For assay [4], the system named is HCC-2998 colon.
Assay [5] deals with SK-MEL-5 melanoma.
In assay [6] the test system is TK-10 renal.
For assay [7], the system named is UACC-62 melanoma.
Assay [8] has as its system IGROV1 ovarian.
Assay [9] deals with K-562 leukemia.
For assay [10], the system named is LOX IMVI melanoma.

`CC/C=C\C[C@H]1CC=C2C(=O)C=C[C@@H]2CC=CCCCC(=O)O[C@@H](CCCCC)CC=C2C(=O)C=C[C@@H]2CC=CCCCC(=O)O[C@@H](CCCCC)CC=C2C(=O)C=C[C@@H]2CC=CCCCC(=O)O[C@@H](CCCCC)CC=C2C(=O)C=C[C@@H]2CC=CCCCC(=O)O1`: the GI50 in [1] was 2.29 µM; in assay [2], 2.45 µM; in assay [3] it was 2.25 µM; in [4], 1.86 µM; in assay [5] it was 1.85 µM; in assay [6], 3 µM. For the same compound, the GI50 was 1.52 µM in [7], 2.32 µM in assay [8], 2.5 µM in assay [9] and 1.22 µM in [10]. Moreover, the TGI in assay [1] is 6.51 µM; in [2] it was greater than 7.9 µM; in [3], greater than 7.9 µM; in [4], 4.07 µM; in assay [5], 4.5 µM; in assay [6], greater than 7.9 µM. The TGI in [7] is 3.59 µM; in assay [8], 7.81 µM; in assay [9] it was greater than 7.9 µM; in assay [10], 2.47 µM.

As a reminder, the GI50 is the concentration that inhibits growth by half. One may read the TGI as the concentration at which net growth stops. Low values mean greater sensitivity of the cells, high ones lower sensitivity of the cells.
